Tests used:
Type in all cases: in vivo
[1] = tested on: cat fleas (Ctenocephalides felis); test: whole plant or invertebrate; settings: 72 h, read-out: death rate
Protocol: In 1 ml of acetone, 1 mg of the presently invented compound was dissolved to prepare a chemical solution having a concentration of 1000 ppm. The bottom surface and side surface of each glass container having an inner wall surface area of 25 cm^2 were coated with 250 µl of the chemical solution, and acetone was then volatilized to form a thin film of the compound on the inner wall of the glass container.
Into each of the treated glass containers, five cat fleas (Ctenocephalides felis) imagoes (mixed-sex) were released, and the glass containers were capped and accommodated in a thermostatic room at 25°C. Three days after the release, the number of dead flea individuals were examined, and the death rate was calculated from the same calculation formula as in Test Example 1.

[2] = tested on: diamondback moths (Plutella xylostella); test: Insecticidal test for diamondback moths; settings: Plutella xylostella, 144 h; 500 ppm chemical solution, leaves soaked, third-instar larvae, six days, 25°C; read-out: death rate
Protocol: A 10% by mass emulsion of the presently invented compound prepared according to the above formulation example for an emulsion was diluted with water containing a spreader to prepare a chemical solution having a concentration of 500 ppm. Chinese olive leaves were soaked in the chemical solution for approximately 10 seconds. After the completion of the soaking operation, the Chinese olive leaves treated with the chemical solution were air-dried, and then put in dishes. Into each dish, five third-instar diamondback moths (Plutella xylostella) larvae were released, and the dishes were capped and accommodated in a thermostatic room at 25°C. […] The test was carried out in duplicate.

[3] = tested on: brown rice planthoppers (Nilaparvata lugens); test: Insecticidal test for brown rice planthoppers; settings: Nilaparvata lugens, 144 h; 500 ppm chemical solution, rice leaf sheaths soaked, third-instar larvae, six days, 25°C; read-out: death rate
Protocol: A 10% by mass emulsion of the presently invented compound prepared according to the above formulation example for an emulsion was diluted with water containing a spreader to prepare a chemical solution having a concentration of 500 ppm. Rice leaf sheaths were soaked in the chemical solution for approximately 10 seconds. After the completion of the soaking operation, the rice leaf sheaths treated with the chemical solution were air-dried, and then put in test tubes. Into each test tube, five third-instar brown rice planthoppers (Nilaparvata lugens) larvae were released, and the test tubes were capped with sponge and accommodated in a thermostatic room at 25°C. Six days after the accommodation, the number of dead brown rice planthoppers individuals in the test tubes were examined, and the death rate was calculated from a calculation formula shown below. The test was carried out in duplicate. [formula]

[4] = tested on: western flower thrips (Frankliniella occidentalis); test: Insecticidal activity against western flower thrips; settings: Frankliniella occidentalis, 48 h; 500 ppm chemical solution sprinkled (2.5 mg/cm^2), larvae on common bean leaf, after 2 days; read-out: death rate
Protocol: Wet filter paper was laid on each styrol cup having an inner diameter of 7 cm, and a common bean leaf cut into a 3 cm square was placed thereon, and inoculated with 20 western flower thrips (Frankliniella occidentalis) larvae. A 10% by mass emulsion of the presently invented compound prepared according to the above formulation example for an emulsion was diluted with water containing a spreader to prepare a chemical solution having a concentration of 500 ppm. For each styrol cup, 2.5 ml of the chemical solution prepared was sprinkled (2.5 mg/cm^2) with a rotary tower sprinkler. […] The test was carried out in duplicate.

| Compound | mortality at 10 µg/cm2 [1] | mortality at 500 µg/mL [2] | mortality at 500 µg/mL [3] | mortality at 500 µg/mL [4] |
| --- | --- | --- | --- | --- |
| O=C(Nc1nccs1)C1=C(O)CC(c2cnc(Cl)c(-c3ccc(F)cc3)c2)NC1=O (stereo not drawn) [2-235] | ≥ 50% | ≥ 90% | ≥ 90% | ≥ 90% |
| Cc1cccc(-c2cc(C3CC(O)=C(C(=O)Nc4ccccn4)C(=O)N3)cnc2Cl)c1 (stereo not drawn) [2-260] | ≥ 50% | ≥ 90% | ≥ 90% | ≥ 90% |
| Cc1cccc(-c2cc(C3CC(O)=C(C(=O)Nc4cnccn4)C(=O)N3)cnc2Cl)c1 (stereo not drawn) [2-261] | ≥ 50% | ≥ 90% | ≥ 90% | ≥ 90% |
| Cc1cccc(-c2cc(C3CC(O)=C(C(=O)Nc4ccc(F)cc4)C(=O)N3)cnc2Cl)c1 (stereo not drawn) [2-263] | ≥ 50% | ≥ 90% | ≥ 90% | ≥ 90% |
| Cc1cccc(-c2cc(C3CC(O)=C(C(=O)Nc4ccc(C#N)cc4)C(=O)N3)cnc2Cl)c1 (stereo not drawn) [2-269] | ≥ 50% | ≥ 90% | ≥ 90% | ≥ 90% |
| O=C(Nc1ccc(F)cc1)C1=C(O)CC(c2nc(-c3ccccc3)no2)NC1=O (stereo not drawn) [3-001] | ≥ 50% | ≥ 90% | ≥ 90% | ≥ 90% |
| O=C(Nc1ccc(F)cc1)C1=C(O)CC(c2nc(-c3cccc(C(F)(F)F)c3)no2)NC1=O (stereo not drawn) [3-005] | ≥ 50% | ≥ 90% | ≥ 90% | ≥ 90% |
| O=C(Nc1ccc(F)cc1)C1=C(O)CC(c2nc(-c3ccccn3)no2)NC1=O (stereo not drawn) [3-006] | ≥ 50% | ≥ 90% | ≥ 90% | ≥ 90% |
| O=C(Nc1ccc(F)cc1)C1=C(O)CC(c2nc(-c3cccnc3)no2)NC1=O (stereo not drawn) [3-007] | ≥ 50% | ≥ 90% | ≥ 90% | ≥ 90% |
| O=C(Nc1ccc(F)cc1)C1=C(O)CC(c2nc(-c3ccc(F)cc3)no2)NC1=O (stereo not drawn) [3-010] | ≥ 50% | ≥ 90% | ≥ 90% | ≥ 90% |
| O=C(Nc1ccc(F)cc1)C1=C(O)CC(c2nc(-c3ccccc3F)no2)NC1=O (stereo not drawn) [3-012] | ≥ 50% | ≥ 90% | ≥ 90% | ≥ 90% |
| O=C(Nc1ccc(F)cc1)C1=C(O)CC(c2nc(-c3cncc(F)c3)no2)NC1=O (stereo not drawn) [3-021] | ≥ 50% | ≥ 90% | ≥ 90% | ≥ 90% |
| O=C(Nc1ccc(F)cc1)C1=C(O)CC(c2nc(-c3cc(F)ccc3F)no2)NC1=O (stereo not drawn) [3-026] | ≥ 50% | ≥ 90% | ≥ 90% | ≥ 90% |
| O=C(Nc1ccc(F)cc1)C1=C(O)CC(c2nc(-c3cccc(Cl)c3)no2)NC1=O (stereo not drawn) [3-029] | ≥ 50% | ≥ 90% | ≥ 90% | ≥ 90% |
| Cc1cccc(-c2noc(C3CC(O)=C(C(=O)Nc4ccc(F)cc4)C(=O)N3)n2)c1 (stereo not drawn) [3-030] | ≥ 50% | ≥ 90% | ≥ 90% | ≥ 90% |
| O=C(Nc1ccc(F)cc1)C1=C(O)CC(c2nc(-c3ccncc3)no2)NC1=O (stereo not drawn) [3-031] | ≥ 50% | ≥ 90% | ≥ 90% | ≥ 90% |
| O=C(Nc1ccc(F)cc1)C1=C(O)CC(c2nc(-c3cc(F)cc(F)c3)no2)NC1=O (stereo not drawn) [3-034] | ≥ 50% | ≥ 90% | ≥ 90% | ≥ 90% |
| O=C(Nc1ccc(F)cn1)C1=C(O)CC(c2nc(-c3ccnc(F)c3)no2)NC1=O (stereo not drawn) [3-036, N-(5-fluoropyridin-2-yl)-6-(3-(2-fluoropyridin-4-yl)-1,2,4-oxadiazol-5-yl)-4-hydroxy-2-oxo-1,2,5,6-tetrahydropyridine-3-carboxamide] | ≥ 50% | ≥ 90% | ≥ 90% | ≥ 90% |

From patent EP4582413A1, “ARYLTETRAHYDROPYRIDINE COMPOUND AND PEST CONTROL AGENT” (priority 2022, dated 2024)
